Values of other authors in patent US10016426B2, “Pharmaceutical compositions for substituted quinazolinones” (Resverlogix Corp., priority 2011, dated 2018).

Tests used:
[1] = following oral administration; Gugler et al. (1975)
[2] = test system: HDL-C level; settings: subjects with low HDL-C; Rubins et al. (1999)

Row | SMILES | intestinal absorption [1] | increase in the HDL-C level [2] [%] | reduction of the CHD risk [2] [%]
1 | O=c1c(O)c(-c2ccc(O)c(O)c2)oc2cc(O)cc(O)c12 [quercetin] | less than 1% |  | 
2 | Cc1ccc(C)c(OCCCC(C)(C)C(=O)O)c1 [gemfibrozil] |  | 6 | 22
